Biological target: PI3Kβ (Homo sapiens (Human), UniProt P42338)
Assay: PI3K isoform TR-FRET enzymatic assay (PI3Kβ)
Assay type: biochemical
Conditions: 2× Km ATP, 30 minutes at 25° C.
Summary of the method: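 IC50 came from four-parameter dose-response fits, normalized between DMSO and 1 μM wortmannin controls. The read-out was TR-FRET (615/665 nm) of PIP3 displacing fluorescent PIP3 from Europium GRP-1 after 10 mM EDTA termination. Compounds were incubated with purified heterodimeric PI3Kβ for 30 min at 25° C.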

Chain of PI3Kβ (P42338 whole entry, canonical isoform): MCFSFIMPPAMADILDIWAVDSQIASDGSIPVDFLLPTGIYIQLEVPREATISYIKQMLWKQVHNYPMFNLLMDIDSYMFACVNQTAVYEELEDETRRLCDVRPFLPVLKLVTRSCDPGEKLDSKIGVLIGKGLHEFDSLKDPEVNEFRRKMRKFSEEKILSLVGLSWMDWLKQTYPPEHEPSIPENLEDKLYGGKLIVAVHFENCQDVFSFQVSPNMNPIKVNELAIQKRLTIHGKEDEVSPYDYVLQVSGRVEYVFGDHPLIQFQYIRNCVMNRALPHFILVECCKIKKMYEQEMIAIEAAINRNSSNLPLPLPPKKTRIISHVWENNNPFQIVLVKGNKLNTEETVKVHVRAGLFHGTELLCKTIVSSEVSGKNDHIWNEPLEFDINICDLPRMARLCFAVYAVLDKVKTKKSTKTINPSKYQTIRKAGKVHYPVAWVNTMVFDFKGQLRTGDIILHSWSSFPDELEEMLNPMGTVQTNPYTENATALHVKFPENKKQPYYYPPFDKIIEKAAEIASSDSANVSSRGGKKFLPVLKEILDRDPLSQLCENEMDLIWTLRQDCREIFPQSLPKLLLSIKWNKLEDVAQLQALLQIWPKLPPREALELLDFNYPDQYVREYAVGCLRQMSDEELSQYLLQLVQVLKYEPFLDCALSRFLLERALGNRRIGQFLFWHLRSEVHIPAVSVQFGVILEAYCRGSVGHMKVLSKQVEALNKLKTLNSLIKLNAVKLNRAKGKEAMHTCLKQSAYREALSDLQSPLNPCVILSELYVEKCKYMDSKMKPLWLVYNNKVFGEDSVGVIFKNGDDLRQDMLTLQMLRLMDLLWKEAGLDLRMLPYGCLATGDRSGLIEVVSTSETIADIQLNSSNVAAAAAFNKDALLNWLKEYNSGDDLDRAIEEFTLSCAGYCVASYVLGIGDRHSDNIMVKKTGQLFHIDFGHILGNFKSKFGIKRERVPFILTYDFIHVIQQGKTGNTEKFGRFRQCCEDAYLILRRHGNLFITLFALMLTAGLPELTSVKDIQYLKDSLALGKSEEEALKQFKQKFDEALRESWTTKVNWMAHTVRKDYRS
Chain of PI3Kβ (P27986 whole entry partner, canonical isoform): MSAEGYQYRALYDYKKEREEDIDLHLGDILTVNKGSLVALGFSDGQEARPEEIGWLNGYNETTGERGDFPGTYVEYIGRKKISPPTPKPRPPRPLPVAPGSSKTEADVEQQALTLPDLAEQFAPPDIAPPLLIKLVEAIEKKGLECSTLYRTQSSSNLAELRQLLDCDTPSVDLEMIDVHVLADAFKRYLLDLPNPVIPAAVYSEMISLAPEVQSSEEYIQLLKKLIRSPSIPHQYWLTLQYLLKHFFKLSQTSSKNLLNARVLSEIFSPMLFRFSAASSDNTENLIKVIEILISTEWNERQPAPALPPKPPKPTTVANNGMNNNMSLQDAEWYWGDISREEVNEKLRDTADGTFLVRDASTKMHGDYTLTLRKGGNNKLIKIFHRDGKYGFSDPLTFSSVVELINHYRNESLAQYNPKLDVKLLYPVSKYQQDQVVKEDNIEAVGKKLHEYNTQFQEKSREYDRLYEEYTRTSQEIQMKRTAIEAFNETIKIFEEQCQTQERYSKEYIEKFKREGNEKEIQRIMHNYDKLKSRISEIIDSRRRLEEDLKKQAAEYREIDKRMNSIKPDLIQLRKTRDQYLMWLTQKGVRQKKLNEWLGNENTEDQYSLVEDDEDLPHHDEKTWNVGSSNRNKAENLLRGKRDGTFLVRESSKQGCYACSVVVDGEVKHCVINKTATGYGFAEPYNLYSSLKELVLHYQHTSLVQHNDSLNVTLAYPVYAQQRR

IC50	SMILES
24 nM	CCc1nc2c(-c3cnc[nH]3)cc(N3CCOCC3)cc2n1-c1cc(C)nc2c(Cl)ccc(Cl)c12 [Example 334, 4-[3-(5,8-dichloro-2-methylquinolin-4-yl)-2-ethyl-7-(1H-imidazol-5-yl)benzimidazol-5-yl]morpholine]
65 nM	Fc1cccc2c(-n3c(C4CC4)nc4c(-c5nnc[nH]5)cc(N5CCOCC5)cc43)ccnc12 [Example 144, 4-[2-cyclopropyl-3-(8-fluoroquinolin-4-yl)-7-(4H-1,2,4-triazol-3-yl)benzimidazol-5-yl]morpholine]
270 nM	Cc1nc2c(-c3nnc[nH]3)cc(N3CCOCC3)cc2n1-c1ccnc2c(F)c(F)ccc12 (atropisomer, axis not shown) [Compound 353, 4-[3-(7,8-difluoroquinolin-4-yl)-2-methyl-7-(4H-1,2,4-triazol-3-yl)benzimidazol-5-yl]morpholine]
34 nM	CCCc1nc2c(-c3nnc(Cl)[nH]3)cc(N3CCOCC3)cc2n1-c1ccnc2c(F)ccc(F)c12 [Example 182, 4-[7-(5-chloro-4H-1,2,4-triazol-3-yl)-3-(5,8-difluoroquinolin-4-yl)-2-propylbenzimidazol-5-yl]morpholine]
120 nM	Cc1nc2c(-c3nnc[nH]3)cc(N3CCOCC3)cc2n1-c1c(F)cnc2ccccc12 [Example 153, 4-(1-(3-fluoroquinolin-4-yl)-2-methyl-4-(4H-1,2,4-triazol-3-yl)-1H-benzo[d]imidazol-6-yl)morpholine]
6 nM	Cc1nc2c(-c3cnc(Cl)[nH]3)cc(N3CCOCC3)cc2n1-c1ccnc2c(F)ccc(F)c12 (atropisomer, axis not shown) [Compound 372, 4-(4-(2-chloro-1H-imidazol-5-yl)-1-(5,8-difluoroquinolin-4-yl)-2-methyl-1H-benzo[d]imidazol-6-yl)morpholine]
2200 nM	Cc1nnc(-c2cc(N3CCOCC3)cc3c2nc(-c2ccncc2)n3-c2ccnc3c(Cl)cccc23)[nH]1 [Example 25, 4-(1-(8-chloroquinolin-4-yl)-4-(5-methyl-4H-1,2,4-triazol-3-yl)-2-(pyridin-4-yl)-1H-benzo[d]imidazol-6-yl)morpholine]
50 nM	Cc1nc2c(-c3cnc(Cl)[nH]3)cc(N3CCOCC3)cc2n1-c1ccnc2c(F)ccc(Cl)c12 [Example 309, 4-[3-(5-chloro-8-fluoroquinolin-4-yl)-7-(2-chloro-1H-imidazol-5-yl)-2-methylbenzimidazol-5-yl]morpholine]
17 nM	Fc1ccc2c(-n3c(C4CC4)nc4c(-c5cnc(Cl)[nH]5)cc(N5CCOCC5)cc43)ccnc2c1Cl [Example 296, 4-[3-(8-chloro-7-fluoroquinolin-4-yl)-7-(2-chloro-1H-imidazol-5-yl)-2-cyclopropylbenzimidazol-5-yl]morpholine]
45 nM	Cc1nnc(-c2cc(N3CCOCC3)cc3c2nc(C2CCC2)n3-c2ccnc3c(Cl)cccc23)[nH]1 [Example 13, 4-(1-(8-chloroquinolin-4-yl)-2-cyclobutyl-4-(5-methyl-4H-1,2,4-triazol-3-yl)-1H-benzo[d]imidazol-6-yl)morpholine]
70 nM	CCc1nc2c(-c3cnn[nH]3)cc(N3CCOCC3)cc2n1-c1ccnc2c(F)ccc(F)c12 [Example 376, 4-(1-(5,8-difluoroquinolin-4-yl)-2-ethyl-4-(1H-1,2,3-triazol-5-yl)-1H-benzo[d]imidazol-6-yl)morpholine]
13 nM	CCCc1nc2c(-c3cnc[nH]3)cc(N3CCOCC3)cc2n1-c1ccnc2c(Cl)cccc12 [Example 207, 4-[3-(8-chloroquinolin-4-yl)-7-(1H-imidazol-5-yl)-2-propylbenzimidazol-5-yl]morpholine]
41 nM	Clc1cccc2c(-n3c(-c4cccnc4)nc4c(-c5nnc[nH]5)cc(N5CCOCC5)cc43)ccnc12 [Example 10, 4-(1-(8-chloroquinolin-4-yl)-2-(pyridin-3-yl)-4-(4H-1,2,4-triazol-3-yl)-1H-benzo[d]imidazol-6-yl)morpholine]

— patent US10214519B2, “Phosphatidylinositol 3-kinase inhibitors” (Gilead Sciences, Inc., priority 2016, dated 2019)
